According to ChEMBL document CHEMBL3600366, “New 4-[(3-cyclohexyl-4-aryl-2,3-dihydro-1,3-thiazol-2-ylidene)amino]benzene-1-sulfonamides, synthesis and inhibitory activity toward carbonic anhydrase I, II, IX, XII” (Bioorg Med Chem Lett, 2015):

Experiments:
Carbonic anhydrase 1 = Carbonic anhydrase 1 (Homo sapiens, UniProt P00915); assay: Inhibition of human carbonic anhydrase-1
Carbonic anhydrase 9 = Carbonic anhydrase 9 (Homo sapiens, UniProt Q16790); assay: Inhibition of human carbonic anhydrase-9

Chain of Carbonic anhydrase 1 (P00915 whole entry): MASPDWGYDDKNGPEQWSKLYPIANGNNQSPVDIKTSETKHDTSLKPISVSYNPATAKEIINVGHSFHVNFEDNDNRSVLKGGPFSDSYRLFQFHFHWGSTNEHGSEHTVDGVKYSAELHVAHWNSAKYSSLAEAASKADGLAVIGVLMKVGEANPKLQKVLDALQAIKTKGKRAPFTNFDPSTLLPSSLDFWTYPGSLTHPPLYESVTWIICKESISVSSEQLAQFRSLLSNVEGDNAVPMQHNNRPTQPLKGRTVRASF

Row | Ki (Carbonic anhydrase 1) | Ki (Carbonic anhydrase 9) | SMILES
1 | > 10000 nM | – | NS(=O)(=O)c1ccc(/N=c2\scc(-c3ccc(Br)cc3)n2C2CCCCC2)cc1
2 | – | 353 nM | NS(=O)(=O)c1ccc(/N=c2\scc(-c3ccc(Cl)cc3)n2C2CCCCC2)cc1
3 | – | 274 nM | NS(=O)(=O)c1ccc(/N=c2\scc(-c3ccc(F)cc3)n2C2CCCCC2)cc1
4 | – | 193 nM | NS(=O)(=O)c1ccc(/N=c2\scc(-c3cccc([N+](=O)[O-])c3)n2C2CCCCC2)cc1
5 | – | 342 nM | NS(=O)(=O)c1ccc(/N=c2\scc(-c3ccc(Cl)cc3Cl)n2C2CCCCC2)cc1
6 | – | 29.5 nM | N#Cc1ccc(-c2cs/c(=N\c3ccc(S(N)(=O)=O)cc3)n2C2CCCCC2)cc1
7 | – | 29.4 nM | NS(=O)(=O)c1ccc(/N=c2\scc(-c3ccc([N+](=O)[O-])cc3)n2C2CCCCC2)cc1
8 | – | 32.5 nM | NS(=O)(=O)c1ccc(/N=c2\scc(-c3ccc(-c4ccccc4)cc3)n2C2CCCCC2)cc1
9 | – | 22.7 nM | Cc1ccc(-c2cs/c(=N\c3ccc(S(N)(=O)=O)cc3)n2C2CCCCC2)cc1
10 | – | 16.5 nM | COc1ccc(-c2cs/c(=N\c3ccc(S(N)(=O)=O)cc3)n2C2CCCCC2)cc1
11 | – | 150 nM | NS(=O)(=O)c1ccc(/N=c2\scc(-c3cccs3)n2C2CCCCC2)cc1
12 | – | 354 nM | NS(=O)(=O)c1ccc(/N=c2\scc(-c3ccccc3)n2C2CCCCC2)cc1

Row | SMILES | Ki (Carbonic anhydrase 1) | Ki (Carbonic anhydrase 9)
13 | NS(=O)(=O)c1ccc(/N=c2\scc(-c3ccc(F)cc3F)n2C2CCCCC2)cc1 | – | 85.5 nM
